Columns and labels:
[1] = biological target: Tyro3 (Homo sapiens (Human), UniProt Q06418); experiment: TAM Enzymatic Assay (HTRF), Tyro3; type: biochemical; settings: 0.366 nM Tyro3, 60 min room temperature
Description: (§1) The kinase assay buffer contained 50 mM HEPES, pH7.5, 10 mM MgCl2, 1 mM EGTA, 0.01% NP-40 and 2 mM DTT. 0.1 ul test compounds dissolved in DMSO were transferred from compound plates to white 384-well assay plates (Greiner […] plates). […] 4 ul enzyme solution (or assay buffer for the enzyme blank) was added to the appropriate wells in each plate, and then 4 ul/well substrate solution was added to initiate the reaction. The plate was protected from light and incubated at room temperature for 60 min. […] The plate was incubated for 1 h at room temperature, and HTRF (homogenous time resolved fluorescence) signal was measured on a PHERAstar FS plate reader (BMG labtech). Percentage of inhibition was calculated for each concentration and IC50 value was generated from curve fitting with GraphPad Prism software.

[2] = biological target: Axl (Homo sapiens (Human), UniProt P30530); experiment: TAM Enzymatic Assay (HTRF), phosphor-Axl; type: biochemical; settings: 5.1 nM phosphor-Axl, 60 min room temperature
Description: Autophosphorylation of Axl was carried out by incubating the recombinant Axl protein (Life Technologies, PV4275) in buffer containing 50 mM Tris, pH7.5, 0.2 mg/ml Axl, 5 mM ATP, 20 mM MgCl2 and 2 mM DTT at room temperature for 1 hour.
as §1

[3] = biological target: c-Mer (Homo sapiens (Human), UniProt Q12866); experiment: TAM Enzymatic Assay (HTRF), c-Mer; type: biochemical; settings: 0.0625 nM c-Mer, 60 min room temperature
Description: as §1

[4] = system: NK cells; settings: Paolino et al., 2014; cited from earlier work
[5] = system: tumor models with different histologies; settings: Paolino et al., 2014; cited from earlier work

Chain of Axl (P30530 26-894): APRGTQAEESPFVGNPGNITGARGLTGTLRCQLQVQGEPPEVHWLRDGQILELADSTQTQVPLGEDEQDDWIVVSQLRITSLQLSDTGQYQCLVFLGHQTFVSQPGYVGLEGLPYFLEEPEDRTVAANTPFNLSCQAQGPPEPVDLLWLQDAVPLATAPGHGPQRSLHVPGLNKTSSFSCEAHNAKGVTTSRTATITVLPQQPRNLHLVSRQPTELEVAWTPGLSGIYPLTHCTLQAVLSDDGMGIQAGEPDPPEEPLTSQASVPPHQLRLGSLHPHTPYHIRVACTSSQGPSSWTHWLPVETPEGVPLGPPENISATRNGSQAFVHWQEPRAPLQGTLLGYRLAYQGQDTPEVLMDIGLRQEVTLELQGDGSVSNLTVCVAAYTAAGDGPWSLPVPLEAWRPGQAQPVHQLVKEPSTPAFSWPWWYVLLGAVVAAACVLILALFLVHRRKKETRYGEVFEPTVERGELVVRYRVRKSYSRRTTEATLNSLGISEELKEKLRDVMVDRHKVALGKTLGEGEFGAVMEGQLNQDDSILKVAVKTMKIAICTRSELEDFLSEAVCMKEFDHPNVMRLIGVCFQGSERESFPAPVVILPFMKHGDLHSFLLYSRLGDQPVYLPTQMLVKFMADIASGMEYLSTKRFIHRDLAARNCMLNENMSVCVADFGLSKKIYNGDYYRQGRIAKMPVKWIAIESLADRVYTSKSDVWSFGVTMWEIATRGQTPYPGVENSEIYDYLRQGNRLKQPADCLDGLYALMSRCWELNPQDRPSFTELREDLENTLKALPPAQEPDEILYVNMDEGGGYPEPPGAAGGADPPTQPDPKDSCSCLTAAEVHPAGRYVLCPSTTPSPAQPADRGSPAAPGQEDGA
Chain of Tyro3 (Q06418 41-890): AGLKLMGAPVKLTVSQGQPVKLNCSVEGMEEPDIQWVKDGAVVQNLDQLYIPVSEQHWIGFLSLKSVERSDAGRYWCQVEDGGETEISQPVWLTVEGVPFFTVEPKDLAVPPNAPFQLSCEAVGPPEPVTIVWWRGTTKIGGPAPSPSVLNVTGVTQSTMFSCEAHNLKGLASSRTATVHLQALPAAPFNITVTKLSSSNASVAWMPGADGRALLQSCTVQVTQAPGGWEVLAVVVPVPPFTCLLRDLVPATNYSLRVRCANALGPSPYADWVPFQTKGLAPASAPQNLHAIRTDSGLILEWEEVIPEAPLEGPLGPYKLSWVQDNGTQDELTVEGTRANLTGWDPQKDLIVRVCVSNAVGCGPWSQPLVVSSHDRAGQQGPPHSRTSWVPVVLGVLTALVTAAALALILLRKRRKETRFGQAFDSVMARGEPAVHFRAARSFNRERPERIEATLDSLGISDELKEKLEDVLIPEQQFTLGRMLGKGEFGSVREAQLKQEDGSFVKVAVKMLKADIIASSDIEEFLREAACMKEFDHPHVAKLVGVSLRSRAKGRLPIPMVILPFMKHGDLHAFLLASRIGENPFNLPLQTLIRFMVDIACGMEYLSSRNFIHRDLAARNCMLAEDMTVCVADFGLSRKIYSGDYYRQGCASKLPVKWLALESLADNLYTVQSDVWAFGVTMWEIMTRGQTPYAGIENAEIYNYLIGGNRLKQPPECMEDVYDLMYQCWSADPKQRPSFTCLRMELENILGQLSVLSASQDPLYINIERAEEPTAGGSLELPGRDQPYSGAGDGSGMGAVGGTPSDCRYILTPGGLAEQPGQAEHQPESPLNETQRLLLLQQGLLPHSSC
Chain of c-Mer (Q12866 21-999): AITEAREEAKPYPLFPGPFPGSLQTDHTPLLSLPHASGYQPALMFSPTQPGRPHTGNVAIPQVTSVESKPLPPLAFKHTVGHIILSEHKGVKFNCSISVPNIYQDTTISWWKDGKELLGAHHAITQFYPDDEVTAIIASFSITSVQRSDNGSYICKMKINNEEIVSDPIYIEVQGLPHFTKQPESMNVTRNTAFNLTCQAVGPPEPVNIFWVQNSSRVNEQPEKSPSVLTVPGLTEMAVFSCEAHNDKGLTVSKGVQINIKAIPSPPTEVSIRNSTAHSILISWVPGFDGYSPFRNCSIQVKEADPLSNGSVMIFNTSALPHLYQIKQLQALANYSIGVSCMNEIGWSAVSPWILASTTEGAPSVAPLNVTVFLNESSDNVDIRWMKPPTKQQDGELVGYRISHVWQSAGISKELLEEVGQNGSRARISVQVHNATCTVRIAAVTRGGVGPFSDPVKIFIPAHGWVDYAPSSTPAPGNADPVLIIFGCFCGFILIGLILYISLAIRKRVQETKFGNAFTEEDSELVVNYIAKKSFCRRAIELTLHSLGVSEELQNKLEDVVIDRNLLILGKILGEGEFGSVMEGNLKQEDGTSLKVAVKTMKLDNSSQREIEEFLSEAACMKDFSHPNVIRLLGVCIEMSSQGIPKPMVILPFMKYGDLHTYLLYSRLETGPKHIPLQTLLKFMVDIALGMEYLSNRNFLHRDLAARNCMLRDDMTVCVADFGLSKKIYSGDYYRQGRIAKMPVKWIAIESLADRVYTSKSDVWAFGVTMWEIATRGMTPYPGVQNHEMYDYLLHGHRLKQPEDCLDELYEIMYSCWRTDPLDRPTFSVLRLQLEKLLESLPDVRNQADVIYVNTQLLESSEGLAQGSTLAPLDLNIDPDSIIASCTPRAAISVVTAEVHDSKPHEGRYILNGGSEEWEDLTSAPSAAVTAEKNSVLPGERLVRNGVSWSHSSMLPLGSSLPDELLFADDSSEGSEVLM

IC50 [1] [nM] | IC50 [2] [nM] | IC50 [3] [nM] | Compound | activation of NK cells [4] | metastasis in tumor models [5]
> 100 | < 5 |  | CC(O)Cn1cc(C(=O)Nc2ccc(-c3cc(C4CCN(C(=O)C5CC5)CC4)n4ncnc(N)c34)cc2)c(=O)n(-c2ccccc2)c1=O (racemic) [Example 80, N-(4-(4-Amino-7-(1-(cyclopropanecarbonyl)piperidin-4-yl)pyrrolo[1,2-f][1,2,4]triazin-5-yl)phenyl)-1-(2-hydroxypropyl)-2,4-dioxo-3-phenyl-1,2,3,4-tetrahydropyrimidine-5-carboxamide] |  | 
 | < 5 | ≤ 5 | CC(C)n1cc(C(=O)Nc2ccc(-c3cc(C4CCN(C5CCN(C)C5=O)CC4)n4ncnc(N)c34)cc2)c(=O)n(-c2ccccc2)c1=O (racemic) [Example 82, N-(4-(4-Amino-7-(1-(1-methyl-2-oxopyrrolidin-3-yl)piperidin-4-yl)pyrrolo[1,2-f][1,2,4]triazin-5-yl)phenyl)-1-isopropyl-2,4-dioxo-3-phenyl-1,2,3,4-tetrahydropyrimidine-5-carboxamide] |  | 
10 to 100 | < 5 | ≤ 5 | CC(=O)c1cc(C(=O)Nc2ccc(-c3cc(C4CCN(C(=O)C(C)C)CC4)n4ncnc(N)c34)cc2)c(=O)n(-c2ccccc2)c1C [Example 112, 5-Acetyl-N-(4-(4-amino-7-(1-isobutyrylpiperidin-4-yl)pyrrolo[1,2-f][1,2,4]triazin-5-yl)phenyl)-6-methyl-2-oxo-1-phenyl-1,2-dihydropyridine-3-carboxamide] |  | 
 |  |  | CCOc1cn(-c2ccc(F)cc2C)nc1C(=O)Nc1ccc(Oc2ccnc3cc(OC)c(OC)cc23)c(F)c1 [LDC1267] | activates NK cells | blocks metastasis
